The source of these data is PubChem BioAssay (NCI).

Some test systems named below: K-562 leukemia; SF-268 CNS; RXF 393 renal; CAKI-1 renal; HL-60(TB) leukemia; HOP-92 NSCLC; TK-10 renal; KM12 colon; HCC-2998 colon; SK-OV-3 ovarian.
What all share (assay): DTP human tumour cell line panel, 48 h

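Step 1: Grow cells in 96-well plates. Step 2: Expose to compound for 48 hours at 5 concentrations. Step 3: Interpolate endpoints linearly; if unreached, use highest concentration. Here, GI50 denotes the concentration required for 50% inhibition of growth. Definition used: TGI = concentration required for complete inhibition of growth.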 A value given as a limit tells only on which side of the number the result lay.

As for `COc1ccc2c(=O)cc(C(Cl)(Cl)Cl)oc2c1`, the GI50 (commonly the concentration that inhibits growth by half) is 0.0525 µM with K-562 leukemia; 0.377 µM with SF-268 CNS; 0.676 µM in the assay on RXF 393 renal; 0.376 µM in the assay on CAKI-1 renal; 0.269 µM with HL-60(TB) leukemia; 0.361 µM in the assay on HOP-92 NSCLC. Further, the GI50 with TK-10 renal was 8.36 µM; in the assay on KM12 colon it was 0.32 µM; with HCC-2998 colon, 0.4 µM; in the assay with SK-OV-3 ovarian, 0.511 µM. Further, the TGI (commonly the concentration giving total growth inhibition) with K-562 leukemia was > 100 µM; with SF-268 CNS, 15.6 µM; in the assay with RXF 393 renal, 20.4 µM; with CAKI-1 renal, 14.6 µM; in the assay with HL-60(TB) leukemia, 0.836 µM; in the assay with HOP-92 NSCLC, 23.3 µM. The TGI came to 40.4 µM in the assay on TK-10 renal, 12.5 µM with KM12 colon, 11.3 µM in the assay on HCC-2998 colon and 31.5 µM with SK-OV-3 ovarian.

As to `O=C(c1ccccc1)C1OC12C(=O)Nc1c(Cl)cc(Cl)cc12` (centres undefined), the TGI with K-562 leukemia was 46.1 µM; with SF-268 CNS it was > 100 µM; with RXF 393 renal, > 100 µM; in the assay with CAKI-1 renal it was > 78 µM; with HL-60(TB) leukemia, 36 µM; in the assay on HOP-92 NSCLC it was > 93.2 µM. Also, the TGI in the assay with TK-10 renal, in the assay with KM12 colon, in the assay on HCC-2998 colon and with SK-OV-3 ovarian was > 100 µM in each case.

Turning to `COc1cc(C(=O)N2CCN(c3ncnc4ccccc34)CC2)c(N)cc1OCc1ccccc1`, the GI50 in the assay on K-562 leukemia was 16.1 µM; with SF-268 CNS, 14.1 µM; in the assay on RXF 393 renal, 13.1 µM; in the assay with CAKI-1 renal, 5.73 µM; with HL-60(TB) leukemia, 20.4 µM; in the assay with HOP-92 NSCLC, 15.4 µM. Moreover, the GI50 in the assay with TK-10 renal is 20 µM; in the assay with KM12 colon, 14.9 µM; in the assay with HCC-2998 colon, 16.6 µM; in the assay with SK-OV-3 ovarian, 20.9 µM. In addition, the TGI in the assay on K-562 leukemia was 42.8 µM; in the assay with SF-268 CNS, 30.1 µM; in the assay on RXF 393 renal it was 27 µM; in the assay with CAKI-1 renal, 24.1 µM; in the assay on HL-60(TB) leukemia it was 47.7 µM; with HOP-92 NSCLC, 36.3 µM. The TGI worked out at 51.1 µM with TK-10 renal, 38.4 µM in the assay on KM12 colon, 30.3 µM in the assay with HCC-2998 colon and 49 µM in the assay on SK-OV-3 ovarian.

Turning to `NC(=O)/N=C1/CCC2C3CCCC2C13`, the TGI in the assay with K-562 leukemia, in the assay on SF-268 CNS, with RXF 393 renal, in the assay on CAKI-1 renal, in the assay on HL-60(TB) leukemia and in the assay with HOP-92 NSCLC was > 100 µM each time. The TGI in the assay on TK-10 renal, in the assay on KM12 colon, in the assay on HCC-2998 colon and with SK-OV-3 ovarian was > 100 µM in each case.

For `COc1cc(N(C)C)c(OC)cc1/C=C\c1ccnc2ccccc12`, the TGI in the assay with K-562 leukemia is > 10 µM; with SF-268 CNS, > 10 µM; in the assay on RXF 393 renal, > 10 µM; in the assay with CAKI-1 renal, > 10 µM; in the assay on HL-60(TB) leukemia, 7.99 µM; in the assay with HOP-92 NSCLC, 9.42 µM. Further, the TGI with TK-10 renal, in the assay on KM12 colon, with HCC-2998 colon and in the assay on SK-OV-3 ovarian was > 10 µM throughout.

`Oc1ccc(-c2nc3ccccc3s2)cc1CN(Cc1ccccn1)Cc1ccccn1`: the GI50 in the assay on K-562 leukemia was 0.674 µM; in the assay with SF-268 CNS, 1 µM; in the assay with RXF 393 renal, 1.64 µM; in the assay with CAKI-1 renal, 0.313 µM; in the assay on HL-60(TB) leukemia, 2.14 µM; in the assay with HOP-92 NSCLC, 4.19 µM. The GI50 in the assay on TK-10 renal is 0.486 µM; in the assay on KM12 colon, 0.909 µM; in the assay with HCC-2998 colon, 3.23 µM; in the assay with SK-OV-3 ovarian, 1.35 µM. The total growth inhibition concentration (TGI) was determined as 35.5 µM with K-562 leukemia; 16 µM with SF-268 CNS; 9.96 µM with RXF 393 renal; 3.36 µM in the assay on CAKI-1 renal; 13.3 µM with HL-60(TB) leukemia; 36.7 µM in the assay on HOP-92 NSCLC. Moreover, the TGI in the assay on TK-10 renal came to 34.6 µM; in the assay on KM12 colon, 15.6 µM; with HCC-2998 colon, 17 µM; with SK-OV-3 ovarian, 43.5 µM.

As for `O=C1C=CC(=Nc2cc(Br)c(O)c(Br)c2)C=C1`, the GI50 in the assay with K-562 leukemia is 5.83 µM; in the assay with SF-268 CNS, 24.6 µM; with RXF 393 renal it was 12.5 µM; in the assay with CAKI-1 renal, 26.4 µM; in the assay with HL-60(TB) leukemia it was 7.65 µM; in the assay with HOP-92 NSCLC it was 39.6 µM. Further, the GI50 with TK-10 renal was 32.9 µM; in the assay on KM12 colon, 16.9 µM; with HCC-2998 colon it was 17.5 µM; in the assay with SK-OV-3 ovarian, 52.8 µM. The TGI is > 100 µM in the assay with K-562 leukemia; > 100 µM in the assay with SF-268 CNS; 63.8 µM in the assay with RXF 393 renal; 68 µM in the assay on CAKI-1 renal; 51.2 µM in the assay with HL-60(TB) leukemia; > 100 µM in the assay on HOP-92 NSCLC. Further, the TGI in the assay on TK-10 renal is > 100 µM; in the assay with KM12 colon it was 42.5 µM; in the assay with HCC-2998 colon, 34.6 µM; in the assay on SK-OV-3 ovarian, > 100 µM.

Turning to `O=C(Nc1ccncc1)C(=O)c1cn(S(=O)(=O)c2ccc(Cl)cc2)c2ccccc12`, the GI50 in the assay with K-562 leukemia is 1.08 µM; with SF-268 CNS, 1.39 µM; in the assay with RXF 393 renal, 3.71 µM; in the assay on CAKI-1 renal it was 1.86 µM; with HL-60(TB) leukemia, 0.401 µM; in the assay with HOP-92 NSCLC, 1.12 µM. Further, the GI50 in the assay on TK-10 renal was 11.5 µM; in the assay with KM12 colon, 0.567 µM; with HCC-2998 colon, 10.3 µM; with SK-OV-3 ovarian, 19.6 µM. Also, the TGI in the assay on K-562 leukemia was > 100 µM; with SF-268 CNS, > 100 µM; with RXF 393 renal, 35.7 µM; in the assay with CAKI-1 renal it was > 100 µM; in the assay on HOP-92 NSCLC it was 19.9 µM; in the assay with TK-10 renal, 38.4 µM. Also, the figures for the TGI in the assay with KM12 colon, in the assay with HCC-2998 colon and in the assay with SK-OV-3 ovarian were > 100 µM, > 100 µM and 73.8 µM, respectively.
